The nature of assay [1]: Binding affinity to Mycobacterium smegmatis ATCC 700084 CYP51 at pH7.5. Further details: species or system Mycolicibacterium smegmatis.
Assay [2] is described as follows: Binding affinity to Mycobacterium smegmatis ATCC 700084 CYP51 in presence of 0.5 M NaCl at pH7.5. Also on record: species or system Mycolicibacterium smegmatis.
The nature of assay [3]: Binding affinity to Mycobacterium smegmatis ATCC 700084 CYP164A2 at pH7.5. Also on record: species or system Mycolicibacterium smegmatis.
Assay [4] in a line: Binding affinity to Mycobacterium smegmatis ATCC 700084 CYP164A2 in presence of 0.5 M NaCl at pH7.5. Further details: species or system Mycolicibacterium smegmatis.
In assay [5] the test system is Mycolicibacterium smegmatis. The assay can be described thus: Selectivity ratio, ratio of Kd for Mycobacterium smegmatis ATCC 700084 CYP164A2 to Kd for Mycobacterium smegmatis ATCC 700084 CYP51.
The nature of assay [6]: Selectivity ratio, ratio of Kd for Mycobacterium smegmatis ATCC 700084 CYP164A2 to Kd for Mycobacterium tuberculosis CYP121.
Assay [7] has as its target T1, Sterol 14alpha-demethylase (Mycobacterium tuberculosis, UniProt P9WPP9).
T1 sequence (P9WPP9 whole entry): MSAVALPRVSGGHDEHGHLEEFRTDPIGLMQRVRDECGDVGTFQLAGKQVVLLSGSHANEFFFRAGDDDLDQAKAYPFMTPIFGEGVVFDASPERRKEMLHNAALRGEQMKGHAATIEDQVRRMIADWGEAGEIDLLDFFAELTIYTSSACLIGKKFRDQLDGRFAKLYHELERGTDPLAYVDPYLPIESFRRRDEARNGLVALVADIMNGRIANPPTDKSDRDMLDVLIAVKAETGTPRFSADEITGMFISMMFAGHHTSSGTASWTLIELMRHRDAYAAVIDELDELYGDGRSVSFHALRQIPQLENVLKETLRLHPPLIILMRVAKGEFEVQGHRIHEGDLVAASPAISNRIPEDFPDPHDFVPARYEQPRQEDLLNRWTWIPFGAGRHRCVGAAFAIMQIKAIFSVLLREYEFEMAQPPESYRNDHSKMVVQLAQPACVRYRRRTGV
Description: Binding affinity to Mycobacterium tuberculosis CYP51

Assay [8] concerns the target T2, Lanosterol 14-alpha demethylase (Bos taurus, UniProt Q4PJW3).
T2 sequence (Q4PJW3 whole entry): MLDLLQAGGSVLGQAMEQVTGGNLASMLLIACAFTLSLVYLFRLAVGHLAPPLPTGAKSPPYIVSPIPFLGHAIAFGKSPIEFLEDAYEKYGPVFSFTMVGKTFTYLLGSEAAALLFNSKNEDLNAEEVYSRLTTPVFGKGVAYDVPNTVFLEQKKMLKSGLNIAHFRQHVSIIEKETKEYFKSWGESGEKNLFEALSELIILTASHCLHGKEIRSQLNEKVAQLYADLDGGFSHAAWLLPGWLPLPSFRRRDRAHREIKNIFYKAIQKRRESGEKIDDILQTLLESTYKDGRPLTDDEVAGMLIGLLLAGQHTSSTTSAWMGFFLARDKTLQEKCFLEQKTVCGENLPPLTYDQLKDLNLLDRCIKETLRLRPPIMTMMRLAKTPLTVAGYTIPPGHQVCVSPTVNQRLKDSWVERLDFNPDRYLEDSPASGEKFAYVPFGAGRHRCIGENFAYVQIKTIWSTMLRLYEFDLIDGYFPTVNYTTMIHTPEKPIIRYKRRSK
As to the kind of experiment: Binding affinity to bovine CYP51.

Assay [9] deals with Mycolicibacterium smegmatis. The assay can be described thus: Selectivity ratio of Kd for Mycobacterium smegmatis ATCC 700084 CYP164A2 in presence of 0.5 M NaCl to Kd for Mycobacterium smegmatis ATCC 700084 CYP164A2.
In another assay the target is T3, Mycocyclosin synthase (Mycobacterium tuberculosis, UniProt P9WPP7).
T3 sequence (P9WPP7 whole entry): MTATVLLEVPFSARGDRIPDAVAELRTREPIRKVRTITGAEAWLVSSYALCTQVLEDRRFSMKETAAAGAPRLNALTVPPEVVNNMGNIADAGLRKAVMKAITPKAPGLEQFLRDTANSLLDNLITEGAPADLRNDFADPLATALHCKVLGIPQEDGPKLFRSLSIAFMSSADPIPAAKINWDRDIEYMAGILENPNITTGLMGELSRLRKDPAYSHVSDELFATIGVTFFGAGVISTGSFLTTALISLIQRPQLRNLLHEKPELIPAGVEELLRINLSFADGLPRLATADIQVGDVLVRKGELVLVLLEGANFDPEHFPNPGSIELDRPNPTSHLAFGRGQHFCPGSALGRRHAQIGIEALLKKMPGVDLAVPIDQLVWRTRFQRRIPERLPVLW
The assay can be described thus: Binding affinity to Mycobacterium tuberculosis CYP121.

A short description of assay [10]: Binding affinity to Mycobacterium smegmatis ATCC 700084 CYP164A2 in presence of 0.05 M NaCl. Also on record: species or system Mycolicibacterium smegmatis.
A short description of assay [11]: Binding affinity to Mycobacterium smegmatis ATCC 700084 CYP164A2 in presence of 0.1 M NaCl. Further details: species or system Mycolicibacterium smegmatis.
Assay [12] is described as follows: Binding affinity to Mycobacterium smegmatis ATCC 700084 CYP164A2 in presence of 0.2 M NaCl. Also on record: species or system Mycolicibacterium smegmatis.
A short description of assay [13]: Binding affinity to Mycobacterium smegmatis ATCC 700084 CYP164A2 in presence of 0.3 M NaCl. Also on record: species or system Mycolicibacterium smegmatis.
Assay [14] is described as follows: Binding affinity to Mycobacterium smegmatis ATCC 700084 CYP164A2 in presence of 1 M NaCl. Further details: species or system Mycolicibacterium smegmatis.
Assay [15] is described as follows: Binding affinity to Mycobacterium smegmatis ATCC 700084 CYP164A2 in presence of 2 M NaCl. Further details: species or system Mycolicibacterium smegmatis.
Assay [16] deals with Mycolicibacterium smegmatis. As to the kind of experiment: Selectivity ratio, ratio of Kd for Mycobacterium smegmatis ATCC 700084 CYP164A2 in presence of 0.3 M NaCl to Kd for Mycobacterium smegmatis ATCC 700084 CYP164A2.
The next assay has as its target T4, Cytochrome P450 130 (Mycobacterium tuberculosis, UniProt P9WPN5).
T4 sequence (P9WPN5 whole entry): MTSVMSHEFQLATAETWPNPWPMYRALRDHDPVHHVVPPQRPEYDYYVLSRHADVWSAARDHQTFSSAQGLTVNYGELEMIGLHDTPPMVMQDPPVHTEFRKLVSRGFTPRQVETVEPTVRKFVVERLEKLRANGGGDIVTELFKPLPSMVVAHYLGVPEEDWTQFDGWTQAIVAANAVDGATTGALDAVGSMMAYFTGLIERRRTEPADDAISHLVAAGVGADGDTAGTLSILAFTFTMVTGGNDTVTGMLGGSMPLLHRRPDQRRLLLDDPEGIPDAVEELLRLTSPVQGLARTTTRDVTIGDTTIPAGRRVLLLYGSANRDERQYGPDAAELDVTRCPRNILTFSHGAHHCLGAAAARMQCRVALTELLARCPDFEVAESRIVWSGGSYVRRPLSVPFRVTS
As to the kind of experiment: Binding affinity to Mycobacterium tuberculosis CYP130.

As usually defined, the Kd is the equilibrium constant for the complex coming apart.

Take `Clc1ccc(COC(Cn2ccnc2)c2ccc(Cl)cc2Cl)c(Cl)c1` (stereo not given) [MICONAZOLE]: the Kd in assay [1] came to 1.16 µM; in [2] it was 0.94 µM; in assay [3], 2.48 µM; in assay [4] (read-out: Kd) it was 5.57 µM; in assay [7], 0.2 µM. In addition, the Ratio turned out to be 2 in assay [5] and 17 in assay [6].

In the case of `CC(=O)N1CCN(c2ccc(OCC3COC(Cn4ccnc4)(c4ccc(Cl)cc4Cl)O3)cc2)CC1` (stereo not given) [KETOCONAZOLE], the Kd in [1] is 7.45 µM; in assay [2], 4.59 µM; in assay [3], 5.69 µM; in assay [4] (read-out: Kd), 7.48 µM; in assay [8], 0.32 µM. Also, the Ratio in assay [9] came out at 3.

For `OC(Cn1cncn1)(Cn1cncn1)c1ccc(F)cc1F` [FLUCONAZOLE], the Kd worked out at 19.5 µM in assay [1], 5.94 µM in assay [2] and 6 µM at Mycocyclosin synthase.

As for `C[C@@H](c1ncncc1F)[C@](O)(Cn1cncn1)c1ccc(F)cc1F` [VORICONAZOLE], the Kd in assay [1] is 5.94 µM; in [2], 4.57 µM; in assay [3], 3.24 µM; in [4] (read-out: Kd), 19.7 µM; in [10], 8.36 µM; in [11] it was 17.9 µM. For the same compound, the Kd came to 20.1 µM in assay [12], 34 µM in [13], 9.85 µM in assay [14] and 13.2 µM in assay [15]. Besides, the values for the Ratio in [9] and in assay [16] were 3 and 12, respectively.

Take `Clc1ccccc1C(c1ccccc1)(c1ccccc1)n1ccnc1` [CLOTRIMAZOLE]: the Kd in assay [1] came to 0.62 µM; in assay [2], 0.43 µM; in assay [3], 1.2 µM; in assay [4] (read-out: Kd), 2.66 µM; on Cytochrome P450 130, 13.3 µM.

Consider `CCC(C)n1ncn(-c2ccc(N3CCN(c4ccc(OCC5COC(Cn6cncn6)(c6ccc(Cl)cc6Cl)O5)cc4)CC3)cc2)c1=O` (stereo not given) [ITRACONAZOLE], for which the Kd in [1] was 1.26 µM; in assay [2], 3 µM; in assay [3], 0.78 µM; in assay [4] (read-out: Kd), 1.11 µM. Besides, the Ratio in assay [9] is 3.

`Clc1ccc(COC(Cn2ccnc2)c2ccc(Cl)cc2Cl)cc1` (stereo not given) [ECONAZOLE]: the equilibrium dissociation constant (Kd) in assay [1] is 0.88 µM; in assay [2], 1.66 µM; in assay [3], 2.52 µM; in [4], 9.31 µM; in assay [7], 0.2 µM. The Ratio in [5] worked out at 2; in assay [6], 17.
